Data reported in PubChem BioAssay AID1259407 (Chemical Carcinogenesis Research Information System (CCRIS), 2018).
Calls of active or inactive are those of the source. How the calls were made is not given here.

System: CCRIS mutagenicity, Ames/micronucleus/aberration tests
Test: CCRIS mutagenicity studies
[1] = Test System: AMES SALMONELLA TYPHIMURIUM, Strain/Indicator: TA98, Metabolic Activation: NONE, Method: STANDARD PLATE
[2] = Test System: AMES SALMONELLA TYPHIMURIUM, Strain/Indicator: TA98, Metabolic Activation: RAT, LIVER, S-9, AROCLOR 1254, Method: STANDARD PLATE
[3] = Test System: AMES SALMONELLA TYPHIMURIUM, Strain/Indicator: TA100, Metabolic Activation: NONE, Method: PREINCUBATION
[4] = Test System: AMES SALMONELLA TYPHIMURIUM, Strain/Indicator: TA100, Metabolic Activation: NONE, Method: STANDARD PLATE
[5] = Test System: AMES SALMONELLA TYPHIMURIUM, Strain/Indicator: TA1535, Metabolic Activation: NONE, Method: STANDARD PLATE
[6] = Test System: AMES SALMONELLA TYPHIMURIUM, Strain/Indicator: TA1535, Metabolic Activation: RAT, LIVER, S-9, AROCLOR 1254, Method: STANDARD PLATE
[7] = Test System: AMES SALMONELLA TYPHIMURIUM, Strain/Indicator: TA1537, Metabolic Activation: NONE, Method: STANDARD PLATE
[8] = Test System: AMES SALMONELLA TYPHIMURIUM, Strain/Indicator: TA1537, Metabolic Activation: RAT, LIVER, S-9, AROCLOR 1254, Method: STANDARD PLATE
[9] = Test System: AMES SALMONELLA TYPHIMURIUM, Strain/Indicator: TA1538, Metabolic Activation: NONE, Method: STANDARD PLATE
[10] = Test System: AMES SALMONELLA TYPHIMURIUM, Strain/Indicator: TA1538, Metabolic Activation: RAT, LIVER, S-9, AROCLOR 1254, Method: STANDARD PLATE
[11] = Test System: AMES SALMONELLA TYPHIMURIUM, Strain/Indicator: TA100, Metabolic Activation: RAT, LIVER, S-9, AROCLOR 1254, Method: STANDARD PLATE

O=NN1CCC[C@H]1c1cccnc1
mutagenic call (Test System: AMES SALMONELLA TYPHIMURIUM, Strain/Indicator: TA98, Metabolic Activation: HAMSTER, LIVER, S-9, AROCLOR 1254, Method: STANDARD PLATE): inactive; negative | mutagenic call [1]: inactive; negative | mutagenic call [2]: inactive; negative | mutagenic call (Test System: AMES SALMONELLA TYPHIMURIUM, Strain/Indicator: TA100, Metabolic Activation: HAMSTER, LIVER, S-9, AROCLOR 1254, Method: STANDARD PLATE): inactive; negative | mutagenic call [3]: active; positive | mutagenic call [4]: inactive; negative | mutagenic call (Test System: AMES SALMONELLA TYPHIMURIUM, Strain/Indicator: TA100, Metabolic Activation: RABBIT, LUNG, CLARA CELLS, Method: PREINCUBATION): inactive; negative | mutagenic call (Test System: AMES SALMONELLA TYPHIMURIUM, Strain/Indicator: TA100, Metabolic Activation: RABBIT, LUNG, MACROPHAGES, Method: PREINCUBATION): inactive; negative | mutagenic call (Test System: AMES SALMONELLA TYPHIMURIUM, Strain/Indicator: TA100, Metabolic Activation: RABBIT, LUNG, S-9, Method: PREINCUBATION): active; positive | mutagenic call (Test System: AMES SALMONELLA TYPHIMURIUM, Strain/Indicator: TA100, Metabolic Activation: RABBIT, LUNG, TYPE II CELLS, Method: PREINCUBATION): inactive; negative | mutagenic call (Test System: AMES SALMONELLA TYPHIMURIUM, Strain/Indicator: TA100, Metabolic Activation: RAT LIVER S-9, AROCLOR 1254, Method: PREINCUBATION): inactive; negative | mutagenic call (Test System: AMES SALMONELLA TYPHIMURIUM, Strain/Indicator: TA1530, Metabolic Activation: RABBIT, LUNG, CLARA CELLS, Method: PREINCUBATION): inactive; negative | mutagenic call (Test System: AMES SALMONELLA TYPHIMURIUM, Strain/Indicator: TA1530, Metabolic Activation: RABBIT, LUNG, MACROPHAGES, Method: PREINCUBATION): inactive; negative | mutagenic call (Test System: AMES SALMONELLA TYPHIMURIUM, Strain/Indicator: TA1530, Metabolic Activation: RABBIT, LUNG, S-9, Method: PREINCUBATION): active; positive | mutagenic call (Test System: AMES SALMONELLA TYPHIMURIUM, Strain/Indicator: TA1530, Metabolic Activation: RABBIT, LUNG, TYPE II CELLS, Method: PREINCUBATION): inactive; negative | mutagenic call (Test System: AMES SALMONELLA TYPHIMURIUM, Strain/Indicator: TA1535, Metabolic Activation: HAMSTER, LIVER, S-9, AROCLOR 1254, Method: STANDARD PLATE): active; positive | mutagenic call [5]: inactive; negative | mutagenic call [6]: inactive; negative | mutagenic call (Test System: AMES SALMONELLA TYPHIMURIUM, Strain/Indicator: TA1537, Metabolic Activation: HAMSTER, LIVER, S-9, AROCLOR 1254, Method: STANDARD PLATE): inactive; negative | mutagenic call [7]: inactive; negative | mutagenic call [8]: inactive; negative | mutagenic call (Test System: AMES SALMONELLA TYPHIMURIUM, Strain/Indicator: TA1538, Metabolic Activation: HAMSTER, LIVER, S-9, AROCLOR 1254, Method: STANDARD PLATE): inactive; negative | mutagenic call [9]: inactive; negative | mutagenic call [10]: inactive; negative | mutagenic call (Test System: AMES SALMONELLA TYPHIMURIUM, Strain/Indicator: TA7004, Metabolic Activation: HAMSTER LIVER S-9, AROCLOR 1254, Method: PREINCUBATION): inactive; negative | mutagenic call (Test System: AMES SALMONELLA TYPHIMURIUM, Strain/Indicator: TA7004, Metabolic Activation: NONE, Method: PREINCUBATION): active; positive | mutagenic call (Test System: AMES SALMONELLA TYPHIMURIUM, Strain/Indicator: TA7004, Metabolic Activation: RAT LIVER S-9, AROCLOR 1254, Method: PREINCUBATION): inactive; negative | mutagenic call (Test System: CHINESE HAMSTER V-79, Strain/Indicator: V-79 (HPRT)/6-THIOGUANINE, Metabolic Activation: RAT, HEPATOCYTES): inactive; negative | mutagenic call (Test System: CHINESE HAMSTER V-79, Strain/Indicator: V-79 (HPRT)/6-THIOGUANINE, Metabolic Activation: RAT, LIVER, S-9, AROCLOR 1254): inactive; negative | mutagenic call (Test System: UDS RABBIT LUNG CLARA CELLS, Strain/Indicator: THY INCORP, Metabolic Activation: NONE, Method: LIQUID SCINTILLATION COUNTING): inactive; negative | mutagenic call (Test System: UDS RABBIT LUNG MACROPHAGES, Strain/Indicator: THY INCORP, Metabolic Activation: NONE, Method: LIQUID SCINTILLATION COUNTING): inactive; negative | mutagenic call (Test System: UDS RABBIT LUNG TYPE II CELLS, Strain/Indicator: THY INCORP, Metabolic Activation: NONE, Method: LIQUID SCINTILLATION COUNTING): inactive; negative | mutagenic call (Test System: UDS RODENT HEPATOCYTES, Strain/Indicator: THY INCORP (NON-S-PHASE), Method: AUTORADIOGRAPHY): active; positive

CN(CCO)C(=O)Nc1ccccc1
mutagenic call [1]: inactive; negative | mutagenic call [2]: inactive; negative | mutagenic call [4]: inactive; negative | mutagenic call [11]: inactive; negative | mutagenic call [5]: inactive; negative | mutagenic call [6]: inactive; negative | mutagenic call [7]: inactive; negative | mutagenic call [8]: inactive; negative | mutagenic call [9]: inactive; negative | mutagenic call [10]: inactive; negative

O=[N+]([O-])c1cccc2csnc12
mutagenic call [1]: active; positive | mutagenic call [4]: active; positive | mutagenic call (Test System: AMES SALMONELLA TYPHIMURIUM, Strain/Indicator: TA100, Metabolic Activation: S-9, Method: STANDARD PLATE): active; positive | mutagenic call [5]: active; positive | mutagenic call (Test System: AMES SALMONELLA TYPHIMURIUM, Strain/Indicator: TA1535, Metabolic Activation: S-9, Method: STANDARD PLATE): inactive; negative | mutagenic call [7]: active; positive | mutagenic call (Test System: AMES SALMONELLA TYPHIMURIUM, Strain/Indicator: TA1537, Metabolic Activation: S-9, Method: STANDARD PLATE): inactive; negative

C[C@@]12CCC=C(C=O)[C@]1(C=O)C2
mutagenic call [1]: active; positive | mutagenic call [4]: active; positive

O=C(O)c1cc(I)cc2cccnc12
mutagenic call [1]: inactive; negative | mutagenic call [2]: inactive; negative | mutagenic call [4]: inactive; negative | mutagenic call [11]: inactive; negative | mutagenic call [5]: inactive; negative | mutagenic call [6]: inactive; negative | mutagenic call [7]: inactive; negative | mutagenic call [8]: inactive; negative

O=C(Cl)c1ccccc1C(=O)Cl
mutagenic call (Test System: AMES SALMONELLA TYPHIMURIUM, Strain/Indicator: TA98, Metabolic Activation: NONE, Method: PREINCUBATION): active; positive | mutagenic call (Test System: AMES SALMONELLA TYPHIMURIUM, Strain/Indicator: TA98, Metabolic Activation: RAT LIVER S-9, PCB, Method: PREINCUBATION): active; positive | mutagenic call [3]: active; positive | mutagenic call (Test System: AMES SALMONELLA TYPHIMURIUM, Strain/Indicator: TA100, Metabolic Activation: RAT LIVER S-9, PCB, Method: PREINCUBATION): active; positive | mutagenic call (Test System: AMES SALMONELLA TYPHIMURIUM, Strain/Indicator: TA104, Metabolic Activation: NONE, Method: PREINCUBATION): active; positive | mutagenic call (Test System: AMES SALMONELLA TYPHIMURIUM, Strain/Indicator: TA104, Metabolic Activation: RAT LIVER S-9, PCB, Method: PREINCUBATION): active; positive | mutagenic call (Test System: E.COLI, Strain/Indicator: WP2 UVRA, Metabolic Activation: NONE, Method: PREINCUBATION): active; positive | mutagenic call (Test System: E.COLI, Strain/Indicator: WP2 UVRA, Metabolic Activation: RAT LIVER S-9, PCB, Method: PREINCUBATION): active; positive

Nc1c2ccccc2nc2ccc(O)cc12
mutagenic call (Test System: AMES SALMONELLA TYPHIMURIUM, Strain/Indicator: TA1537, Metabolic Activation: NONE, Method: PREINCUBATION): active; positive

O=c1ccc2cc3cc4cccc5ccc(c2c1)c3c54
mutagenic call [1]: inactive; negative | mutagenic call [2]: inactive; negative | mutagenic call [11]: active; positive

CCCOc1cc(N=Nc2ccccc2)ccc1N=Nc1c(S(=O)(=O)O)cc2ccc(N)cc2c1O
mutagenic call [1]: inactive; negative | mutagenic call [2]: active; positive | mutagenic call [4]: inactive; negative | mutagenic call [11]: inactive; negative | mutagenic call [9]: inactive; negative | mutagenic call [10]: active; positive
